The source of these data is PMC10447463, “Data-mining unveils structure–property–activity correlation of viral infectivity enhancing self-assembling peptides” (Nature Communications, 2023).

The nature of data set [1]: β-sheet content by ATR-FT-IR. The data set is classed as physicochemical. To be noted: Fig. S7 panel A; β-sheet content by ATR-FT-IR. The method in brief:
(§1)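 Spectra: 64 scans, 2 cm^-1, lyophilized PNF (1 mg/mL source). CR = 100 − 100 × filtrate/original fluorescamine signal; triplicate, ± SD.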

Data set [2] in a line: Conversion rate (CR) assay with fluorescamine. The data set is classed as physicochemical. To be noted: conversion rate, fluorescamine assay. More on the design: key to CR: % = 100−100×filtrate/original fluorescence intensity. In a few lines: as §1
The format of data set [3] is physicochemical. Details: key to Fibril / Fibril Formation / TEM 2cat / Fibril: 1 = fibrils present; 0 non-fibrillar structures.
The format of data set [4] is physicochemical. The method in brief:
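Fibrils (1 mg/mL solution) were mixed with 50 µM ThT in PBS for 15 min at RT, and fluorescence was read at λex 440/λem 488 nm against a PBS blank, as a triplicate mean ± SD. Zeta potential came from electrophoretic mobility (Smoluchowski) after 1 d aggregation at 1 mg/mL in PBS pH 7.4, diluted into 1 mM KCl.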

Where two headings read alike, the source gives them in different places.

As for SISISRRI, the “b -sheet / %” value in data set [1] is given as 48.78%. The sequence also displayed a CR / % in data set [2] (Fig. S7 panel B) of 24.2%. In data set [2], this sequence showed a CR of 24.22. Also, the “TEM 2cat” value in data set [3] (Fig S10 panel D) came out at 0; in data set [3] (FigS12 panel A, fibril category by TEM), 0. Also, the Fibril worked out at 0 in data set [3] (Fig S10 panel E); 0 in data set [3] (FigS12 panel B, TEM); 0 in data set [3] (TEM, 1 = fibrils present, 0 = non-fibrillar); 0 in data set [3] (TEM, 1 = fibrils present, 0 = non-fibrillar structures). Besides, in data set [3] (TEM, 1 mg/mL, uranyl acetate stain, qualitative), the “Fibril / Fibril Formation” value is 0. Besides, the “Tht category (> 2 to blank = +)” value in data set [4] (Fig S10 panel D) and in data set [4] (FigS12 panel A) was 0 (ThT-inactive (N-Fold <2)) throughout. In addition, the “ThT Cat.” value in data set [4] (Fig S10 panel E) is 0 (ThT-inactive (N-Fold <2)); in data set [4] (ThT category, 1 if Rel. ThT >2), 0 (ThT-inactive (N-Fold <2)). Moreover, the “ThT Cat,” value is 0 (ThT-inactive (N-Fold <2)) in data set [4] (FigS12 panel B) and 0 (ThT-inactive (N-Fold <2)) in data set [4] (ThT category, 1 if Rel. ThT >2). Besides, the “ThT Cat. / ThT-Fluorescence (categorical)” value in data set [4] (ThT-active if fluorescence at least twice the control) is 0 (ThT-inactive (N-Fold <2)).
